The nature of series [1]: Absorption maximum of the structures. The class given is physicochemical. Particulars: measured in methanol, or if not soluble in methanol, in ethanol. The procedure: Absorption maxima of the structures in Tables 1 to 3 are measured in methanol, or if not soluble in methanol, in ethanol.
Series [2] in a line: Appearance of formulation after application to the transparent substrate. The class given is physicochemical.

Turning to `CCCCCCN(/C=C/C=C(/C(=O)OCC)S(=O)(=O)c1ccccc1)CCCCCC` [Structure 1.1i], the Absorption maximum in series [1] (Table 1) was determined as 373 nm.

The compound `CCCCN(/C=C/C=C(\C(=O)OC)S(=O)(=O)c1ccc(C(C)(C)C)cc1)CCCC` [Structure 1.2i] displayed an Absorption maximum in series [1] (Table 1) of 373 nm. On the same count and under the same terms, then `CCCCC(CC)COC(=O)C(=C/C=C/N(C)C)C(=O)OCC(CC)CCCC` (stereo not drawn) [Structure 1.3i], with 374 nm; and `CCCCCCN(/C=C/C=C(\C(=O)OCCOc1ccc(C(C)(C)CC)cc1C(C)(C)CC)S(=O)(=O)c1ccc(C)cc1)CCCCCC` [Structure 1.4i], with 374 nm; and `CCCCCCN(/C=C/C=C(C#N)C#N)CCCCCC` [Structure 1.5i], with 378 nm. Same read-out and setting: in the case of `CCCCN(/C=C/C=C1C(=O)CC(C)(C)CC1=O)CCCC` [Structure 1.6r] it was 389 nm; in that of `CCCCN(/C=C/C=C(\C(C)=O)S(=O)(=O)c1ccc(C)cc1)CCCC` [Structure 1.7r], 385 nm; in that of `CCCCCCN(/C=C/C=C(\C(C)=O)S(=O)(=O)c1ccccc1)CCCCCC` [Structure 1.8r], 385 nm. `CCCCCCN(/C=C/C=C1C(=O)N(C)N(C)C1=O)CCCCCC` [Structure 1.9r]: the Absorption maximum in series [1] (Table 1) worked out at 387 nm. In series [1] (Table 1), `CCCCCCN(/C=C/C=C1C(=O)N(C)C(=O)N(C)C1=O)CCCCCC` [Structure 1.10r] had an Absorption maximum of 388 nm.

In the case of `CCCCCCCCCCOC(=O)/C(=C/C=C/N(C)C)C(C)=O` [Structure 1.12r], the Absorption maximum in series [1] (Table 1) came out at 394 nm. The “Appearance (colour) of formulation” value in series [2] is recorded as “had a colourless appearance after application to the transparent substrate, except for structure 1.12r”. Regarding `CCCCCCN(/C=C/C=C(C(C)=O)C(C)=O)CCCCCC` [Structure 1.13r], in series [1] (Table 1), the Absorption maximum worked out at 395 nm.

For the compound `CCCCCCCCCCOC(=O)/C(=C\C=C\N1CCCCC1)S(=O)(=O)c1ccccc1` [Structure 2.1i], the Absorption maximum in series [1] (Table 2) was 375 nm. On the same count and under the same terms, then `CC(=O)/C(=C\C=C\N1CCOCC1)S(=O)(=O)c1ccccc1` [Structure 2.2r], with 383 nm; and `CCCCC(CC)COC(=O)C(=CC=CN1CCCCC1)C(C)=O` (stereo not drawn) [Structure 2.3r], with 395 nm. `Cc1ccc(S(=O)(=O)/C(C#N)=C\C=C2\OCC(C)(C)N2C)cc1` [Structure 3.1i]: in series [1] (Table 3), the Absorption maximum came to 361 nm. Same read-out and setting: then `CCCCCCOC(=O)/C(=C/C=C1/OCC(C)(C)N1C)S(=O)(=O)c1ccccc1` [Structure 3.2i], with 362 nm.

The compound `CCCCCCCCCCCCN1/C(=C\C=C(C#N)C#N)OCC1(C)C` [Structure 3.3i] displayed an Absorption maximum in series [1] (Table 3) of 372 nm.

Turning to `CCCCCCCCCCN1/C(=C\C=C(\C(C)=O)S(=O)(=O)c2ccccc2)OCC1(C)C` [Structure 3.4i], the Absorption maximum in series [1] (Table 3) is 373 nm. On the same count and under the same terms, in the case of `CCCCCCCCCCCCOC(=O)/C(C#N)=C/C=C1/OCC(C)(C)N1C` [Structure 3.5i] it was 374 nm; in that of `CCCCCCCCCCN1CCC/C1=C/C=C(/C(=O)OCC)S(=O)(=O)c1ccc(OC)cc1` [Structure 3.6i], 375 nm.

In turn, `CCCCCCCCCCN1CCC/C1=C/C=C(/C(C)=O)S(=O)(=O)c1ccccc1` [Structure 3.7r] came in with an Absorption maximum in series [1] (Table 3) of 392 nm.

With `CCCCCCCCCCN1/C(=C\C=C(\C(=O)OCCCCCC)S(=O)(=O)c2ccc(C)cc2)SCC1C` (stereo not drawn) [Structure 3.8r], the Absorption maximum in series [1] (Table 3) stood at 392 nm.

For the origin of these results see patent US20080260661A1, “Aminobutadiene-Based Uv Screens” (Fuji Photo Film B.V., priority 2004, published 2008).
